Measured values as given in patent publication US4435391A, “Dibenzoxazepine derivative, and pharmaceutical composition comprising the same” (Chugai Seiyaku Kabushiki Kaisha, priority 1980, dated 1984).
Where two headings read alike, the source gives them in different places.

How the values were obtained:
[1] = system: lipid peroxide level (TBA) of blood; experiment: Lipid peroxide (TBA) level of blood in alloxan-treated mice (Experiment 1); format: in vivo, male mice of ddY strain; conditions: Table 1, 300 mg/kg orally, 22 h after alloxan 75 mg/kg i.v., blood drawn 48 h after alloxan, vs untreated mice; for inhibition in vivo at 300 mg/kg: Mus musculus, po, read-out: Percent Reduction TBA (x ± S.E.)
Method: (§1) Male mice of ddY strain weighing between 25 and 30 g were divided into groups of 10 members each and administered intravenously 75 mg/kg of alloxan. Twenty-two hours later, each mouse was administered orally 300 mg/kg of a test compound of this invention as suspended in 1% gum arabic. […] The lipid peroxide level (TBA) of blood was determined with Lipoperoxide-Test Wako (Wako Pure Chemical Industries, Ltd., Japan). The level of blood sugar (BG) was determined with New Blood Sugar Test (Berlinger Mannheim AG., West Germany). […] As a positive control, tocopherol was used.

[2] = system: triglyuride (TG) level of plasma; experiment: Plasma triglyceride (TG) in Triton-injected mice (Experiment 2); format: in vivo, mice of ddY strain; conditions: Table 2, 150 mg/kg immediately and 8 hours after Triton WR-1399 500 mg/kg i.v., blood drawn 24 h after Triton; for inhibition in vivo: Mus musculus, iv, read-out: Percent Reduction TG (x ± S.E.)
Method: (§2) The mice of ddY strain weighing between 25 and 30 g were fasted overnight and then Triton WR-1399(500 mg/kg) (Ruger Chemicals Co.) was intravenously injected into the mice. Immediately and 8 hours after the injection, each mouse was administered 150 mg/kg of a test compound of this invention as suspended in 1% aqueous methylcellulose.
(§3) 24 Hours after the injection of Triton, the blood was drawn from the heart. The cholesterol (TC) and triglyuride (TG) levels of plasma were determined with RaBASuper (Chugai Seiyaku K.K., Japan).
(§4) As a positive control, chlofibrate were used.

[3] = system: platelets (platelet rich plasma); experiment: Inhibition of platelet aggregation in platelet rich plasma (Experiment 3); format: cell-based, SD strain rats; conditions: for inhibition at 100 µM: Rattus norvegicus, Platelet
Method: Platelet rich plasma samples were prepared from the blood of SD strain rats, and to 0.5 ml of the samples, test compounds in the form of a solution in dimethyl sulfoxide (DMSO) were added in such an amount that the concentration of the compounds in the mixture was 1×10^-4 M. The assay media containing aspirin were used as a control. After incubation for one minute, arachidonic acid, collagen and adenosine diphosphate (ADP) were added to the mixture in concentrations of 1×10^-4 M, 1.5×10^-3 M and 1×10^-6 M, respectively, to aggregate the platelets. The aggregation level was determined with an aggregometer. CORNING-EEL MODEL 16P (Manufactured by Evans Electro Selenium Ltd.) and the percent inhibition of platelets was calculated from the following equation: [formula]

[4] = system: level of blood sugar (BG); experiment: Blood sugar (BG) level in alloxan-treated mice (Experiment 1); format: in vivo, male mice of ddY strain; conditions: Table 1, 300 mg/kg orally, 22 h after alloxan 75 mg/kg i.v., blood drawn 48 h after alloxan, vs untreated mice
Method: as §1

[5] = system: cholesterol (TC) level of plasma; experiment: Plasma cholesterol (TC) in Triton-injected mice (Experiment 2); format: in vivo, mice of ddY strain; conditions: Table 2, 150 mg/kg immediately and 8 hours after Triton WR-1399 500 mg/kg i.v., blood drawn 24 h after Triton; for inhibition in vivo: Mus musculus, iv, read-out: Percent Reduction TC (x ± S.E.)
Method: as §2, §3, §4

[6] = Table 3 (own numbering), compound 1×10^-4 M, aggregation by ADP 1×10^-6 M, read-out: Percent Inhibition of Aggregation, ADP
[7] = Table 3 (own numbering), compound 1×10^-4 M, aggregation by arachidonic acid 1×10^-4 M, read-out: Percent Inhibition of Aggregation, Arachidonic acid
[8] = Table 3 (own numbering), compound 1×10^-4 M, aggregation by collagen 1.5×10^-3 M, read-out: Percent Inhibition of Aggregation, Collagen
[9] = Table 3 (own numbering), compound 1×10^-4 M, aggregation by ADP 1×10^-6 M
[10] = Table 3 (own numbering), compound 1×10^-4 M, aggregation by arachidonic acid 1×10^-4 M
[11] = Table 3 (own numbering), compound 1×10^-4 M, aggregation by collagen 1.5×10^-3 M

| Molecule | inhibition at 100 µM [3, 6] [%] | inhibition at 100 µM [3, 7] [%] | inhibition at 100 µM [3, 8] [%] | inhibition in vivo at 300 mg/kg [1] [%] | inhibition in vivo [5] [%] | inhibition in vivo [2] [%] | further results |
| --- | --- | --- | --- | --- | --- | --- | --- |
| 11-methyl-3-methoxydibenz[b,f][1,4]oxazepine-8-carboxylic acid [Compound 7 (Table 1)] |  |  |  |  |  |  | Percent Reduction TBA (x ± S.E.) [1]: 61.1%; Percent Reduction TG (x ± S.E.) [2]: 17.8% |
| CCOC(=O)c1ccc2c(c1)N=C(C)c1ccc(C)cc1O2 [Compound 3 (Table 3)] | 50 | 55 | 43 |  |  |  |  |
| CCOC(=O)c1ccc2c(c1)N=Cc1ccc(C)cc1O2 [Compound 3] |  |  |  | 23 | 17.8 | 18.7 | Percent Reduction BG (x ± S.E.) [4]: 16.5% |
| CCOC(=O)c1ccc2c(c1)N=C(CC)c1ccc(C)cc1O2 [Compound 4 (Table 1)] | 50 | 60 | 47 |  |  |  |  |
| CCOC(=O)c1ccc2c(c1)N=C(C)c1cccc(C)c1O2 [Compound 4 (Table 3)] | 51 | 60 | 48 |  |  |  |  |
| CCOC(=O)c1ccc2c(c1)N=C(C)c1cccc(OC)c1O2 [Compound 5 (Table 3)] | 35 | 45 | 30 |  |  |  |  |
| CCOC(=O)c1ccc2c(c1)N=C(CC)c1ccc(OC)cc1O2 [Compound 6] |  |  |  | 54 | 19.5 | 19.6 |  |
| COc1ccc2c(c1)Oc1ccc(C(=O)O)cc1N=C2C [Compound 7] |  |  |  | 64.8 | 17.3 | 18.8 | Percent Reduction BG (x ± S.E.) [4]: 15.7% |
| CC1=Nc2cc(C(=O)O)ccc2Oc2cc(C)ccc21 [Compound 8] |  |  |  | 52 | 18.6 | 19.3 | Percent Reduction BG (x ± S.E.) [4]: 16.3% |
| CCC1=Nc2cc(C(=O)O)ccc2Oc2cc(OC)ccc21 [Compound 9] |  |  |  | 67.7 | 17.9 | 18.5 | Percent Reduction BG (x ± S.E.) [4]: 18.4% |
| COC(=O)c1ccc2c(c1)N=Cc1cccc(OC)c1O2 [Compound 10] | 36 | 38 | 34 | 50.3 | 20.7 | 24.5 |  |
| CCCOC(=O)c1ccc2c(c1)N=Cc1cccc(OC)c1O2 [Compound 11] | 43 | 42 | 40 | 38.6 | 19.2 | 21.3 |  |
| CCCCOC(=O)c1ccc2c(c1)N=Cc1cccc(OC)c1O2 [Compound 12] | 35 | 43 | 37 | 19.7 | 17.4 | 19.3 |  |
| O=C(O)c1ccc2c(c1)N=Cc1cc(Cl)ccc1O2 [Compound 13] |  |  |  | 18.3 | 14.5 | 15.2 | Percent Reduction BG (x ± S.E.) [4]: 10.4% |
| CCOc1cccc2c1Oc1ccc(C(=O)O)cc1N=C2 [Compound 14] |  |  |  | 63.4 | 19.5 | 21.3 | Percent Reduction BG (x ± S.E.) [4]: 18.7% |
| Cc1ccc2c(c1)C=Nc1cc(C(=O)O)ccc1O2 [Compound 15] |  |  |  | 23.8 | 17.7 | 19.4 | Percent Reduction BG (x ± S.E.) [4]: 16.5% |
| CCOC(=O)c1ccc2c(c1)N=C(CC)c1cc(OC)cc(OC)c1O2 [Compound 16 (Table 1)] | 44 | 52 | 47 |  |  |  |  |
| CCOC(=O)c1ccc2c(c1)N=C(CC)c1cc(OC)cc(OC)c1O2 [Compound 16] |  |  |  | 28.5 | 16.4 | 17.8 |  |
| CCOC(=O)c1ccc2c(c1)N=C(C=Cc1ccccc1)c1cc(OC)ccc1O2 [Compound 17 (Table 1)] | 46 | 48 | 45 |  |  |  |  |
| CCOC(=O)c1ccc2c(c1)N=C(C=Cc1ccccc1)c1cc(OC)ccc1O2 [Compound 17] |  |  |  | 34.4 ± 2.9 | 17.4 ± 3.5 | 19.7 ± 4.5 |  |
| CCOC(=O)c1ccc2c(c1)N=C(c1ccccc1)c1ccc(OC)cc1O2 [Compound 18 (Table 1)] | 40 | 50 | 43 |  |  |  |  |
| CCOC(=O)c1ccc2c(c1)N=C(c1ccccc1)c1ccc(OC)cc1O2 [Compound 18] |  |  |  | 41.7 ± 3.2 | 18.4 ± 2.9 | 21.3 ± 3.2 |  |
| CCOC(=O)c1ccc2c(c1)N=C(c1cccc(C)c1)c1ccc(OC)cc1O2 [Compound 19] | 39 | 45 | 41 | 34.9 | 20.1 | 19.7 |  |
| CCCC1=Nc2cc(C(=O)OCC)ccc2Oc2cc(C)ccc21 [Compound 20] | 47 | 60 | 50 | 39.6 | 16.5 | 17.4 |  |
| CC(=O)Oc1ccccc1C(=O)O [aspirin, reference compound] |  |  |  |  |  |  | inhibition at 100 µM ([3]; read-out: Percent Inhibition of Aggregation, ADP): 17%; inhibition at 100 µM ([3]; read-out: Percent Inhibition of Aggregation, Arachidonic acid): 100%; inhibition at 100 µM ([3]; read-out: Percent Inhibition of Aggregation, Collagen): 8% |
| CCOC(=O)C(C)(C)Oc1ccc(Cl)cc1 [chlofibrate, reference compound] |  |  |  |  | 13.8 | 9.5 |  |
| Cc1c(C)c2c(c(C)c1O)CCC(C)(CCCC(C)CCCC(C)CCCC(C)C)O2 (stereo not drawn) [α-tocopherol, reference compound] |  |  |  | 51.7 |  |  |  |
| ethyl 4-methoxydibenz[b,f][1,4]oxazepine-8-carboxylate [Compound 6 (Table 3)] |  |  |  |  |  |  | Percent Reduction TBA (x ± S.E.) ([1]; listed as 1): 12.3%; Percent Reduction TBA (x ± S.E.) ([1]; listed as 2): 25.5%; Percent Reduction BG (x ± S.E.) ([4]; listed as 1): 15.5%; Percent Reduction BG (x ± S.E.) ([4]; listed as 2): 22.4%; Percent Reduction TC (x ± S.E.) ([5]; listed as 1): 19.3%; Percent Reduction TC (x ± S.E.) ([5]; listed as 2): 21.4%; Percent Reduction TG (x ± S.E.) ([2]; listed as 1): 20.8%; Percent Reduction TG (x ± S.E.) ([2]; listed as 2): 23.5%; Percent Inhibition of Aggregation, ADP [3, 9]: 20%; Percent Inhibition of Aggregation, Arachidonic acid [3, 10]: 40%; Percent Inhibition of Aggregation, Collagen [3, 11]: 25% |
| ethyl 11-methyl-3-methoxydibenz[b,f][1,4]oxazepine-8-carboxylate [Compound 5 (Table 1)] |  |  |  |  |  |  | Percent Reduction TBA (x ± S.E.) [1]: 35.2%; Percent Reduction TC (x ± S.E.) [5]: 18.4%; Percent Reduction TG (x ± S.E.) [2]: 18.7%; Percent Inhibition of Aggregation, ADP [3, 9]: 45%; Percent Inhibition of Aggregation, Arachidonic acid [3, 10]: 63%; Percent Inhibition of Aggregation, Collagen [3, 11]: 50% |
